From ChEMBL document CHEMBL1201862, “PubChem BioAssay data set” (2004)
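Dose response: 5 concentrations. Exposure: 48 h. Format: 96-well plates. Endpoint: linear interpolation; highest concentration if not reached. GI50 = concentration required for 50% inhibition of growth.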 Active and inactive are the calls of the source. Cut-off read from the data, not from the text of the source: active = GI50 up to about 1.1 µM and inactive = higher.

Assays:
Test in all cases: growth of human tumour cells (NCI), 48 h
SK-MEL-2 = test system: SK-MEL-2
M14 = test system: M14
UO-31 = test system: UO-31
NCI-H226 = test system: NCI-H226
DMS-114 = test system: DMS-114
UACC-62 = test system: UACC-62
TK-10 = test system: TK-10
COLO 205 = test system: COLO 205
HCC 2998 = test system: HCC 2998
ACHN = test system: ACHN
SF-295 = test system: SF-295
OVCAR-5 = test system: OVCAR-5
CCRF-CEM = test system: CCRF-CEM
DLD-1 = test system: DLD-1
DMS-273 = test system: DMS-273
SNB-19 = test system: SNB-19
SF-539 = test system: SF-539
RXF 393 = test system: RXF 393
M19-MEL = test system: M19-MEL
HCT-116 = test system: HCT-116
UACC-257 = test system: UACC-257
A549 = test system: A549
IGROV-1 = test system: IGROV-1
HT-29 = test system: HT-29
SNB-78 = test system: SNB-78
LXFL 529 = test system: LXFL 529
HCT-15 = test system: HCT-15
MOLT-4 = test system: MOLT-4
SNB-75 = test system: SNB-75
SK-MEL-28 = test system: SK-MEL-28
NCI-H460 = test system: NCI-H460
786-0 = test system: 786-0
SK-MEL-5 = test system: SK-MEL-5
OVCAR-8 = test system: OVCAR-8
SR = test system: SR
NCI-H23 = test system: NCI-H23
OVCAR-3 = test system: OVCAR-3
HOP-18 = test system: HOP-18
SN12C = test system: SN12C
NCI-H522 = test system: NCI-H522
SF-268 = test system: SF-268
SW-620 = test system: SW-620
HL-60 = test system: HL-60
Malme-3M = test system: Malme-3M
EKVX = test system: EKVX
K562 = test system: K562
OVCAR-4 = test system: OVCAR-4
SK-OV-3 = test system: SK-OV-3
HOP-92 = test system: HOP-92
KM-20L2 = test system: KM-20L2
HOP-62 = test system: HOP-62
KM12 = test system: KM12
LOX IMVI = test system: LOX IMVI
U-251 = test system: U-251
A498 = test system: A498
CAKI-1 = test system: CAKI-1
RPMI-8226 = test system: RPMI-8226

Measured: GI50

Cc1cc(/C=C/c2cc[n+](C)c3ccccc23)c(O)c2ncccc12
4.65 µM: HCT-15
inactive: SK-MEL-2 2.67 µM | M14 1.44 µM | UO-31 6.67 µM | NCI-H226 1.87 µM | UACC-62 1.99 µM | TK-10 4.28 µM | COLO 205 5.68 µM | ACHN 4.22 µM | OVCAR-5 3.27 µM | DLD-1 3.32 µM | SNB-19 4.55 µM | RXF 393 2.38 µM | M19-MEL 1.42 µM | UACC-257 2.97 µM | A549 2.07 µM | IGROV-1 1.93 µM | HT-29 3.76 µM | SNB-78 4.63 µM | SNB-75 5.16 µM | SK-MEL-28 2.16 µM | NCI-H23 1.7 µM | HOP-18 1.36 µM | NCI-H522 1.77 µM | Malme-3M 2.8 µM | EKVX 3.28 µM | K562 2.46 µM | OVCAR-4 7.94 µM | SK-OV-3 2.4 µM | HOP-92 2.99 µM | KM-20L2 5.68 µM | HOP-62 1.87 µM | KM12 2.19 µM | LOX IMVI 1.35 µM | U-251 1.23 µM | A498 4.19 µM | CAKI-1 10.1 µM
active: DMS-114 0.214 µM | HCC 2998 1.06 µM | SF-295 0.991 µM | CCRF-CEM 0.181 µM | DMS-273 0.558 µM | SF-539 0.426 µM | HCT-116 0.966 µM | LXFL 529 0.156 µM | MOLT-4 0.646 µM | NCI-H460 0.597 µM | 786-0 0.916 µM | SK-MEL-5 1.02 µM | OVCAR-8 0.411 µM | SR 0.379 µM | OVCAR-3 0.288 µM | SN12C 1.09 µM | SF-268 0.973 µM | SW-620 0.619 µM | HL-60 0.625 µM | RPMI-8226 0.71 µM

CC(=O)N(C(C)=O)C1=C2c3ccccc3N(S(=O)(=O)c3ccccc3)C2n2c(=O)n(-c3ccccc3)c(=O)n2C1 (configuration not stated)
inactive: SK-MEL-2 22.9 µM | M14 27.3 µM | UO-31 29.7 µM | UACC-62 18.1 µM | TK-10 36.8 µM | COLO 205 30.7 µM | HCC 2998 22.7 µM | ACHN 30.9 µM | SF-295 31.8 µM | OVCAR-5 30.6 µM | CCRF-CEM 35 µM | DLD-1 32.6 µM | DMS-273 44.2 µM | SNB-19 30.3 µM | SF-539 19.9 µM | M19-MEL 27.1 µM | HCT-116 43.3 µM | UACC-257 44.2 µM | A549 65.6 µM | IGROV-1 41.7 µM | HT-29 59 µM | LXFL 529 39.7 µM | SNB-75 14 µM | SK-MEL-28 30 µM | NCI-H460 15.3 µM | 786-0 38.6 µM | SK-MEL-5 27 µM | OVCAR-8 23.3 µM | SR 5.78 µM | NCI-H23 26.5 µM | OVCAR-3 25.5 µM | HOP-18 22 µM | SN12C 69.7 µM | NCI-H522 17.1 µM | SF-268 > 100 µM | SW-620 40.6 µM | HL-60 23.3 µM | Malme-3M 20.9 µM | EKVX 21.9 µM | K562 40.1 µM | SK-OV-3 32.8 µM | HOP-92 24.2 µM | KM-20L2 34.2 µM | HOP-62 62.4 µM | KM12 34.7 µM | LOX IMVI 29.9 µM | U-251 34.4 µM | CAKI-1 27.5 µM | RPMI-8226 12.7 µM
30.4 µM: HCT-15
